Source: patent publication US20050180968A1, “Use of relaxin for stimulating the development of activated human T cells into TH1-like effectors” (priority 2000, published 2005)

Key:
[1] = system: established CD4+ T cell clones; experiment: RT-PCR of IFN-? and IL-4 mRNA in established CD4+ T cell clones; format: cell-based, human; details: two clones, 10^−8 M RLX vs absence
Method: To induce cytokine mRNA expression in established T cell clones for RNA extraction 2×10^5 T blasts from each clone were cultured with insolubilized anti-CD3 (1?g/ml). After 12 h, pellets were washed four times with PBS at pH 7.2 and kept frozen until used. Total RNA was extracted using Ultraspec RNA Isolation kit (Biotex Laboratories, Inc. Houston, Tex., USA). […] Following extraction, 1 ?g of RNA was reverse transcribed by M-MLV reverse transcriptase (Gibco-BRL, Gaithersburg, Md., USA). All cDNA were amplified with primers for ?-actin to test the quality of cDNA and then subjected to PCR amplification with primers for IFN-? and IL-4. In each PCR reaction a positive control and a negative control (without cDNA as template to exclude contamination) were included. PCR analysis was carried out in a DNA thermal cycler (Idaho Technology, Idaho Falls, ID, USA). […] The size of the amplified products was evaluated by comparison with molecular weight markers run in parallel lanes.
The intensity of the bands for ?-actin obtained by RT-PCR was measured in all the samples to confirm that the same quantities of total RNA were reverse transcribed. In addition, the intensity of the bands for IFN-? obtained by PCR amplification (MIMIC and samples) and by Southern blot was also measured. […]

[2] = system: adherent cell-enriched fractions of PBMC (monocytes/APC); experiment: IL-12 and IFN-? release by adherent cell-enriched fractions of PBMC stimulated with TT; format: cell-based, human; details: stimulated 5 days with TT, absence vs presence of RLX
[3] = system: established CD4+ T cell clones (Th0-like); experiment: Cytokine production (ELISA) by established CD4+ T cell clones stimulated with insolubilized anti-CD3 mAb; format: cell-based, human; details: for levels of IFN-?: 12 CD4+ clones, insolubilized anti-CD3 mAb, p<0.03 vs absence of RLX (3.6±0.98 ng/ml)
Method: To generate T cell clones, PBMC from normal subjects were seeded under limiting dilution conditions (0.3 cell/well) in six round-bottom microwell plates containing […] (6000 rad) allogeneic PBMC (as feeder cells) and PHA (1% vol/vol) in a final volume of 0.2 ml complete medium supplemented with 20 U/ml IL-2 and 10% FCS. Growing microcultures where then supplemented, at weekly intervals, with 20 U/ml IL-2 and 10^5 irradiated feeder cells. The phenotype distribution of T cell clones was assessed by flow cytometer-analysis.
(§1) To quantitate cytokine production in supernatants of TT-specific shortterm T cell lines and established T cell clones, […] were cultured in the presence of 20 ng/ml PMA plus 100 ng/ml anti-CD3 mAb. After 36 h culture, cell-free supernatants were collected, filtered, and stored in aliquots at −70° C. until used. Determination of IFN-? was performed by a commercial ELISA (Biosource International, Camarill, Calif.). […] Values of the cytokine content 5 SD over those of control supernatants obtained by stimulation of irradiated feeder cells alone were regarded as positive.
The two curves shown in FIG. 2 relate to two CD4^+ T cell clones stimulated with immobilised anti-CD3 antibody in the presence or in the absence of different concentrations of RLX for 36 h. […] Total RNA was extracted as described herein after. 1?g of RNA was reversed transcribed and cDNA were amplified and then subjected to PCR amplification with primers for IFN-? and IL4 as discussed more in detail below.
To provide unequivocal evidence of the direct effect of RLX on T cells, the activity of RLX on the IFN-? mRNA expression and IFN-? production by established T cell clones was examined. To this end, 12 CD4^+ T cells clones showing a Th0-like profile (production of both IFN-? and IL-4) were cultured in the absence of any other cell type and stimulated with insolubilized anti-CD3 mAb in the presence or absence of RLX. […] The levels of IL-4 produced by the same CD4+T cell clones were not altered by the presence of RLX.

PSS patients = details: cited from earlier work
CD4+ T cell clone = experiment: Competitive PCR for IFN-? mRNA in a CD4+ T cell clone; format: cell-based, human
Method: Competitive PCRfor IFN-?was performed using a competitorcontrol fragment (PCR MIMIC; Clontech Laboratories Inc. Palo Alto, Calif., USA) according to the manufacturer's instructions. PCR MIMIC was used together with sample cDNA in the reaction mixture; sample and control cDNA were amplified with the same primers, so they competed for the same primers in the same reaction, but were distinguished on gel electrophoresis by differences in length. By knowing the amount of PCR MIMIC added to the reaction, the amount of target cDNA and therefore the initial mRNA levels could be determined. Each sample (and competitor fragment) was subjected to 25 cycles of amplification as described above.
The intensity of the bands for ?-actin obtained by RT-PCR was measured in all the samples to confirm that the same quantities of total RNA were reverse transcribed. In addition, the intensity of the bands for IFN-? obtained by PCR amplification (MIMIC and samples) and by Southern blot was also measured. A CCD video camera C3077/01 (Hamamatsu Photonics, Tokyo, Japan) interfaced with an Apple Macintosh personal computer was used. Acquisition of images was obtained with Imagequest IQBase software (Hamamatsu Photonics). Image processing and analysis was performed with the free-share software IMAGE (National Institutes of Health, Research Services, Branch NIMH, version 1.28).

sensitized guinea pigs = details: RLX treatment; cited from earlier work
[4] = system: TT-specific short-term T cell lines from PBMC; experiment: Cytokine production by TT-specific short-term T cell lines expanded with or without RLX; format: cell-based, human
Method: TT-specific short-term T cell lines were generated from PBMC of TT-vaccinated normal donors according to a technique described in M. P. Piccinni et al <<Progesterone favors the development of human T helper cells producing Th2-type cytokines and promotes both IL-4 production and membrane CD30 expression in established TH1 cell clones>>, in J. Immmunol., 1995, 155: 128-133.
Briefly, 10^5 PBMC in 2 ml RPMI 1640 medium supplemented with 2 mM L-glutamine, 2×10^−5M 2-ME and 5% human serum (complete medium) were stimulated in 24-well flat-bottom plates for 5 days with the antigen (0.2?g/ml TT) in the absence or in the presence of RLX at concentrations of 10^−10, 10^−9, 10^−8, 10^−7 and 10^−6 M. Human IL-2 (20 U/ml) was then added and cultures continued for another 9 days. Viable T blasts were resuspended in complete medium and tested for their antigen specificity. To this end, 2×10^4 T blasts were seeded in microplates and cocultured for 48 h with irradiated (6000 rad) autologous PBMC (5×10^4) in the presence of medium alone or 0.1 ? g/ml TT, respectively. After a 16-h pulse with 0.5 ?Ci [^3H]thimidine, cultures where harvested and radioactivity measured by liquid scintillation. The phenotype distribution of TT-specific T cells was assessed by flow cytometer analysis.
as §1
On the other hand, no effect of RLX dilution can be observed on the production of IL-4.

[5] = FIG. 1, mean values, cultures with antigen plus 200 U/ml IL-12 as printed
[6] = expanded in presence vs absence of RLX

Which “IFN-? mRNA expression (RT-PCR)” value [1] does the source give for relaxin [RLX] here?
Its value is “higher levels”.

What about the “IL-4 mRNA levels (RT-PCR)” value [1] of the same substance?
Its value is “the same”.

What about the “concentration of IFN-? in supernatants” value [2] of the same substance?
The value was “no significant differences”.

And the “concentration of IL-12 in supernatants” value [2]?
The value was “no significant differences”.

What about the “levels of IFN-?” value ([3]; 10^−7 M RLX) of the same substance?
Its value is 5.87±1.63 ng/m.

What about the “levels of IFN-?” value ([3]; 10^−8 M RLX) of the same substance?
Its value is 8.20 ± 2.27 ng/mL.

What about the “levels of IL-4” value ([3]; same 12 CD4+ T cell clones, presence vs absence of RLX) of the same substance?
Its value is “not altered”.

What about the total skin score (PSS patients; PSS patients, control phase trial) of the same substance?
The total skin score was “improvement”.

And the tolerability (PSS patients; RLX treatment compared with administration of IFN-?)?
Its tolerability is “better tolerated”.

What about the “increase of IFN-? mRNA (competitive PCR, image analysis)” value (CD4+ T cell clone; T cell clone no. 2, 10^−8 M RLX vs absence) of the same substance?
Its value is “approximately tenfold increase”.

And the “IFN-? mRNA amount (competitive PCR)” value (CD4+ T cell clone; T cell clone no. 2, presence of 10^−8 M RLX, absence of RLX 4.1×10^−3)?
Its value is 5×10^−2 attomol/? I.

What about the allergic asthma-like reaction (sensitized guinea pigs) of the same substance?
Its allergic asthma-like reaction is “reduced”.

And the bronchial hyperresponsiveness (sensitized guinea pigs)?
Its bronchial hyperresponsiveness is “reduced”.

And the “production of IFN-? in TT-specific T cell lines as a function of RLX concentration (FIG. 1)” value [4, 5]?
Its value is “increases with the concentration of RLX”.

And the “production of IL-4 in TT-specific T cell lines as a function of RLX concentration (FIG. 1)” value [4, 5]?
Its value is “no effect”.

And the “production of IFN-? in TT-specific T cells” value ([4]; expanded in presence of RLX at 10^−9, 10-8 and 10^−7 M vs absence of RLX)?
Its value is “significantly higher”.

And the “production of IL-4 in TT-specific T cells” value [4, 6]?
Its value is “no significant differences”.

What about the “production of IL-5 in TT-specific T cells” value [4, 6] of the same substance?
The value was “no significant differences”.

What about the “production of IL-6 in TT-specific T cells” value [4, 6] of the same substance?
Its value is “no significant differences”.
